From patent publication US20090099158A1, “TETRAHYDROISOQUINOLINE COMPOUNDS AS MODULATORS OF THE HISTAMINE H3 RECEPTOR” (priority 2007, published 2009) come the findings set out here.

Assay [1] concerns the target T1, human H3 receptor (Homo sapiens, UniProt Q9Y5N1).
T1 construct: expressed in transfected cells; host or cells: SK-N-MC sublines with reporter construct
Briefly: Cyclic AMP Accumulation (human H3 receptor). The assay is classed as cell-based. The conditions noted are these: SK-N-MC cells expressing a reporter construct and the human H3 receptor; average; read-out: Human pA2 (converted). The source says:
(§1) Sublines of SK-N-MC cells were created that expressed a reporter construct and either the human or rat H3 receptor. The pA2 values were obtained as described by Barbier et al. (2004). Data for compounds tested in these assays are presented in Table 3, as an average of the results obtained (NT=not tested).

The target of assay [2] is T2, Rat H3 (Rattus norvegicus, UniProt Q9QYN8). Put plainly: Cyclic AMP Accumulation (rat H3 receptor). The format is cell-based. Further details: expressed in transfected cells; host or cells: SK-N-MC sublines with reporter construct. To be noted: SK-N-MC cells expressing a reporter construct and the rat H3 receptor; average; read-out: Rat pA2 (converted).
Excerpt: as §1

Assay [3] deals with T3, cloned human H3 receptors (Homo sapiens, UniProt Q9Y5N1).
T3 construct: expressed in transfected cells; host or cells: SK-N-MC cells
Briefly: H3 Receptor Binding (Human). To be noted: cloned human H3 receptors stably expressed in SK-N-MC cells; average of the results obtained. On the procedure:
Binding of compounds to the cloned human H3 receptors, stably expressed in SK-N-MC cells, was performed as described by Barbier, A. J. et al. (Br. J. Pharmacol. 2004, 143(5), 649-661). Data for compounds tested in this assay are presented in Table 1 as an average of the results obtained.

Assay [4] deals with T2, Rat H3. Put plainly: H3 Receptor Binding (Rat). Further details: A rat brain without cerebellum (Zivic Laboratories Inc., Pittsburgh, Pa.) was homogenized; tissue Zivic Laboratories Inc; host or cells: rat brain without cerebellum (membranes). To be noted: rat brain (without cerebellum) membranes; 0.8 nM N-[3H]-α-methylhistamine, 60 min at 25° C.; IC50 converted to Ki; average. On the procedure:
A rat brain without cerebellum (Zivic Laboratories Inc., Pittsburgh, Pa.) was homogenized in 50 mM Tris-HCl/5 mM EDTA and centrifuged at 1,000 rpm for 5 min. The supernatant was removed and recentrifuged at 15,000 rpm for 30 min. Pellets were rehomogenized in 50 mM Tris/5 mM EDTA (pH 7.4). Membranes were incubated with 0.8 nM N-[^3H]-α-methylhistamine plus/minus test compounds for 60 min at 25° C. and harvested by rapid filtration over GF/C glass fiber filters (pretreated with 0.3% polyethylenimine) followed by four washes with buffer. Nonspecific binding was defined in the presence of 100 μM histamine. Inhibitory concentration (responsible for 50% inhibition of maximal effect, IC50) values were determined by a single site curve-fitting program (GraphPad, San Diego, Calif.) and converted to Ki values based on a N-[^3H]-α-methylhistamine dissociation constant (Kd) of 0.8 nM. Data for compounds tested in this assay are presented in Table 2 as an average of the results obtained.

T2 sequence (Q9QYN8 whole entry): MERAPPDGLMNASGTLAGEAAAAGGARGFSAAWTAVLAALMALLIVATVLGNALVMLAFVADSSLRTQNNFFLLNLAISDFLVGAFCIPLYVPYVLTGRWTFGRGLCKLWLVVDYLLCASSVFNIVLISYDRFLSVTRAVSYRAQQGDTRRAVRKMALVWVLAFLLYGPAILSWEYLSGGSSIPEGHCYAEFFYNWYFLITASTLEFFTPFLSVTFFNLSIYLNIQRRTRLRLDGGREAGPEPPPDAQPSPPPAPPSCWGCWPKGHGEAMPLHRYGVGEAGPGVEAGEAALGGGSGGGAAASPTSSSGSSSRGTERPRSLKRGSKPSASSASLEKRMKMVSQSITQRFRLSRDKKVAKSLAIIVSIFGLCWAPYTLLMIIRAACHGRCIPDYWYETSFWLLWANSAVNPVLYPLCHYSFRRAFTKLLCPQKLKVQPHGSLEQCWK
T1 sequence (Q9Y5N1 whole entry): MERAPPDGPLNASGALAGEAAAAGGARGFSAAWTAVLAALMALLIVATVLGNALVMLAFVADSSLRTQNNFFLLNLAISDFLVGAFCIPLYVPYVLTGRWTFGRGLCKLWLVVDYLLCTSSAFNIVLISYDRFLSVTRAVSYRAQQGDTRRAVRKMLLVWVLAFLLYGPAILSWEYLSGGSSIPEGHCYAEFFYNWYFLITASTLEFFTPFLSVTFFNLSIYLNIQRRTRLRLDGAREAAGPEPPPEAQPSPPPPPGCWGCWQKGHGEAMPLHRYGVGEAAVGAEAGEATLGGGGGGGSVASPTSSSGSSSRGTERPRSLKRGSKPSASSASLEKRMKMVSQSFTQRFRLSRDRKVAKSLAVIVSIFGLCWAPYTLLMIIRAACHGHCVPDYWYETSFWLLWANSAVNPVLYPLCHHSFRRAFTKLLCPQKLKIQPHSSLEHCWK
T3 sequence (Q9Y5N1 whole entry): as above

One may read the Ki as a dissociation constant, usually derived from enzyme kinetics or from competition with a known ligand. Higher therefore signals lower affinity. On to `CC(C)N1CCCN(C(=O)c2ccc3c(c2)CCNC3)CC1` [Example 5, (4-Isopropyl-[1,4]diazepan-1-yl)-(1,2,3,4-tetrahydro-isoquinolin-6-yl)-methanone], for which the Kb in assay [1] is 1.55 nM; in assay [2], 15.8 nM. In assay [3], this molecule gave an inhibition constant (Ki) of 3 nM.
The like results for `CC(C)N1CCCN(C(=O)c2ccc3c(c2)CCN(Cc2ccccc2)C3)CC1` [Example 11, (2-Benzyl-1,2,3,4-tetrahydro-isoquinolin-6-yl)-(4-isopropyl-[1,4]diazepan-1-yl)-methanone] were, in that order, 0.661 nM, 4.47 nM and 1 nM.
`O=C(c1ccc2c(c1)CCN(Cc1ccsc1)C2)N1CCN(C2CCC2)CC1` [Example 15, (4-Cyclobutyl-piperazin-1-yl)-(2-thiophen-3-ylmethyl-1,2,3,4-tetrahydro-isoquinolin-6-yl)-methanone]: the Kb in assay [1] is 1.05 nM. The molecule also yielded a Ki in assay [3] of 4 nM.
Consider `CC(C)N1CCN(C(=O)c2ccc3c(c2)CCN(Cc2ccc(Cl)cc2)C3)CC1` [Example 22, [2-(4-Chloro-benzyl)-1,2,3,4-tetrahydro-isoquinolin-6-yl]-(4-isoproplyl-piperazin-1-yl)-methanone], for which the Kb in assay [1] was 10.5 nM; in assay [2], 30.9 nM. In addition, in assay [3], the Ki is 5 nM.
For the molecule `O=C(c1ccc2c(c1)CN(Cc1ccccc1)CC2)N1CCN(C2CCC2)CC1` [Example 26, (2-Benzyl-1,2,3,4-tetrahydro-isoquinolin-7-yl)-(4-cyclobutyl-piperazin-1-yl)-methanone], the Kb in assay [1] was 17.8 nM. For the same molecule, the Ki in assay [3] amounted to 2 nM.
For the molecule `O=C(c1ccc2c(c1)CCN(C(=O)c1ccccc1)C2)N1CCN(C2CCC2)CC1` [Example 27, (2-Benzoyl-1,2,3,4-tetrahydro-isoquinolin-6-yl)-(4-cyclobutyl-piperazin-1-yl)-methanone], the Ki in assay [4] was 84 nM; in assay [3], 9 nM.
With `O=C(c1ccc2c(c1)CCN(C(=O)C1CCCCC1)C2)N1CCN(C2CCC2)CC1` [Example 33, [6-(4-Cyclobutyl-piperazine-1-carbonyl)-3,4-dihydro-1H-isoquinolin-2-yl]-cyclohexyl-methanone], the values for the inhibition constant (Ki) in assay [4] and in assay [3] were 123 nM and 8 nM, respectively. Also, in assay [2], the Kb is 13.8 nM.
As to `O=C(c1ccc2c(c1)CCN(C(=O)c1ccccc1)C2)N1CCCN(C2CCC2)CC1` [Example 35, [6-(4-Cyclobutyl-[1,4]diazepane-1-carbonyl)-3,4-dihydro-1H-isoquinolin-2-yl]-phenyl-methanone], the Kb in assay [1] is 0.513 nM; in assay [2], 2.34 nM. In assay [3], the affinity, expressed as Ki, was 1 nM.
The like results for `O=C(c1ccc2c(c1)CN(C(=O)c1ccccc1)CC2)N1CCCN(C2CCC2)CC1` [Example 36, [7-(4-Cyclobutyl-[1,4]diazepane-1-carbonyl)-3,4-dihydro-1H-isoquinolin-2-yl]-phenyl-methanone] were, in that order, 0.49 nM, 3.8 nM and 1 nM.
Regarding `O=C(c1ccc2c(c1)CCN(C(=O)C1CCCC1)C2)N1CCCN(C2CCC2)CC1` [Example 39, [6-(4-Cyclobutyl-[1,4]diazepane-1-carbonyl)-3,4-dihydro-1H-isoquinolin-2-yl]-cyclopentyl-methanone], the Kb is 0.38 nM in assay [1] and 3.02 nM in assay [2]. Further, in assay [3], affinity was put at a Ki of 1 nM.
The like results for `O=C(c1ccc2c(c1)CCN(C(=O)C1CCCCC1)C2)N1CCCN(C2CCC2)CC1` [Example 40, [6-(4-Cyclobutyl-[1,4]diazepane-1-carbonyl)-3,4-dihydro-1H-isoquinolin-2-yl]-cyclohexyl-methanone] were, in that order, 0.355 nM, 2.88 nM and 1 nM.
The corresponding values for `CCC(=O)N1CCc2cc(C(=O)N3CCC[C@H]3CN3CCCC3)ccc2C1` [Example 45, (S)-1-[6-(2-Pyrrolidin-1-ylmethyl-pyrrolidine-1-carbonyl)-3,4-dihydro-1H-isoquinolin-2-yl]-propan-1-one] are 2.82 nM, 20.4 nM and 6 nM.
With `O=C(c1ccc2c(c1)CCN(C(=O)c1ccc(Cl)cc1)C2)N1CCCN(C2CCC2)CC1` [Example 133, (4-Chloro-phenyl)-[6-(4-cyclobutyl-[1,4]diazepane-1-carbonyl)-3,4-dihydro-1H-isoquinolin-2-yl]-methanone], the Ki in assay [4] is 18 nM; in assay [3], 2 nM.
For the molecule `O=C(c1ccc2c(c1)CCN(C(=O)c1cccc(Cl)c1)C2)N1CCCN(C2CCC2)CC1` [Example 135, (3-Chloro-phenyl)-[6-(4-cyclobutyl-[1,4]diazepane-1-carbonyl)-3,4-dihydro-1H-isoquinolin-2-yl]-methanone], the Ki in assay [4] amounted to 11 nM; in assay [3] it was 1 nM.
The like results for `O=C(c1ccc2c(c1)CCN(C(=O)c1ccccc1F)C2)N1CCCN(C2CCC2)CC1` [Example 136, [6-(4-Cyclobutyl-[1,4]diazepane-1-carbonyl)-3,4-dihydro-1H-isoquinolin-2-yl]-(2-fluoro-phenyl)-methanone] were, in that order, 16 nM and 1 nM.
The corresponding values for `O=C(c1ccc2c(c1)CCN(C(=O)C1CCOC1)C2)N1CCCN(C2CCC2)CC1` (stereo not shown) [Example 137, [6-(4-Cyclobutyl-[1,4]diazepane-1-carbonyl)-3,4-dihydro-1H-isoquinolin-2-yl]-(tetrahydro-furan-3-yl)-methanone] are 8 nM and 1 nM.
As to `CCC(=O)N1CCc2cc(C(=O)N3CCCN(C4CCC4)CC3)ccc2C1` [Example 139, 1-[6-(4-Cyclobutyl-[1,4]diazepane-1-carbonyl)-3,4-dihydro-1H-isoquinolin-2-yl]-propan-1-one], the Ki in assay [4] stood at 7 nM; in assay [3], 1 nM.
Consider `Cc1ccc(C(=O)N2CCc3cc(C(=O)N4CCCN(C5CCC5)CC4)ccc3C2)cc1F` [Example 142, [6-(4-Cyclobutyl-[1,4]diazepane-1-carbonyl)-3,4-dihydro-1H-isoquinolin-2-yl]-(3-fluoro-4-methyl-phenyl)-methanone], for which the Ki in assay [4] was determined as 28 nM; in assay [3], 1 nM.
The corresponding values for `O=C(c1ccc2c(c1)CCN(C(=O)c1ccc(F)cc1F)C2)N1CCCN(C2CCC2)CC1` [Example 144, [6-(4-Cyclobutyl-[1,4]diazepane-1-carbonyl)-3,4-dihydro-1H-isoquinolin-2-yl]-(2,4-difluoro-phenyl)-methanone] are 32 nM and 1 nM.
The corresponding values for `CC(C)N1CCc2cc(C(=O)N3CCCN(C4CCC4)CC3)ccc2C1` [Example 177, (4-Cyclobutyl-[1,4]diazepan-1-yl)-(2-isopropyl-1,2,3,4-tetrahydro-isoquinolin-6-yl)-methanone] are 1 nM and 1 nM.
The corresponding values for `O=C(c1ccc2c(c1)CCN(C1CCC1)C2)N1CCN2CCCCC2C1` (stereo not shown) [Example 187, (2-Cyclobutyl-1,2,3,4-tetrahydro-isoquinolin-6-yl)-(octahydro-pyrido[1,2-a]pyrazin-2-yl)-methanone] are 30 nM and 3 nM.
The molecule `O=C(c1ccc2c(c1)CCN(C1CCCC1)C2)N1CCCCC1` [Example 191, (2-Cyclopentyl-1,2,3,4-tetrahydro-isoquinolin-6-yl)-piperidin-1-yl-methanone] came in with a Ki in assay [3] of 2200 nM. That is a single-digit micromolar value.
On the same count and under the same terms, with `O=C(c1ccc2c(c1)CCN(C1CCCC1)C2)N1CCN2CCCCC2C1` (stereo not shown) [Example 192, (2-Cyclopentyl-1,2,3,4-tetrahydro-isoquinolin-6-yl)-(octahydro-pyrido[1,2-a]pyrazin-2-yl)-methanone] the figure was 1 nM; with `CC(C)(C)C1CCN(C(=O)c2ccc3c(c2)CCN(C2CCCC2)C3)CC1` [Example 193, (4-tert-Butyl-piperidin-1-yl)-(2-cyclopentyl-1,2,3,4-tetrahydro-isoquinolin-6-yl)-methanone], 240 nM; with `CC(C)(O)C1CCN(C(=O)c2ccc3c(c2)CCN(C2CCCC2)C3)CC1` [Example 194, (2-Cyclopentyl-1,2,3,4-tetrahydro-isoquinolin-6-yl)-[4-(1-hydroxy-1-methyl-ethyl)-piperidin-1-yl]-methanone], 2700 nM.
